Experiments:
[1] = target: Cy5-labelled Mcl1 (amino acids 171-321) C286S protein (UniProtKB Q07820) (Homo sapiens (Human), UniProt Q07820, C286S); assay: Inhibition of Mcl-1 by the fluorescence quenching assay (Example A, Method B); assay type: binding
In short: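 Cy5-labelled Mcl1 171-321 C286S (1 nM) quenched by TQ5WS-labelled PUMA peptide (10, 20 or 400 nM); displacement raises fluorescence (Ex 620/Em 680 nm). Buffer 10 mM HEPES, 150 mM NaCl, 0.05% Tween 20, pH 7.4, 5% DMSO; 2 h at room temperature, 11-point curves, IC50 converted to Ki (cKi/eKi).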

NCI-H929 cell lines = assay: In vitro cytotoxicity, CellTiter-Glo (CTG) assay (Example B, Method B); assay type: cell-based; details: Homo sapiens, NCI-H929, 48 h, NCI-H929 cells, 48 h incubation, read-out: C50
In short: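 NCI-H929 cells exposed to an 11-point compound series from 10 mM DMSO stocks (top final 30 μM) for 48 h at 37° C., 5% CO2. Viability measured as ATP by CellTiter-Glo luminescence; C50 is the concentration giving 50% cellular viability.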

Cy5-labelled Mcl1 (amino acids 171-321) C286S protein, sequence (Q07820 171-321 C286S): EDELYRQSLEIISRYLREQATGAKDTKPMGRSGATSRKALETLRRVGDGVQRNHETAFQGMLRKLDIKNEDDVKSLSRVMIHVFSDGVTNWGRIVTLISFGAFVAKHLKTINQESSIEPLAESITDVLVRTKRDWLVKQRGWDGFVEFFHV

Structure (SMILES)	Ki [1] [nM]	IC50 (NCI-H929 cell lines) [nM]
C[C@@H](COc1ccnc2c1[C@H](C)CCC2)C[C@H]1Cc2ccc(OCC(F)(F)F)cc2[C@]12CC[C@@](Nc1cccc(Cl)c1)(C(=O)O)CC2 [Example 792, (1r,2′S,4S)-4-(3-chloroanilino)-2′-[(2R)-2-methyl-3-{[(5R)-5-methyl-5,6,7,8-tetrahydroquinolin-4-yl]oxy}propyl]-6′-(2,2,2-trifluoroethoxy)-2′,3′-dihydrospiro[cyclohexane-1,1′-indene]-4-carboxylic acid]	0.469	143
C[C@@H]1CCCc2nccc(OC[C@@H](C[C@H]3Cc4ccccc4[C@]34CC[C@@](Nc3cccc(Cl)c3)(C(=O)O)CC4)c3ccccc3)c21 [Example 797, (1r,2′S,4S)-4-(3-chloroanilino)-2′-[(2S)-3-{[(5R)-5-methyl-5,6,7,8-tetrahydroquinolin-4-yl]oxy}-2-phenylpropyl]-2′,3′-dihydrospiro[cyclohexane-1,1′-indene]-4-carboxylic acid]	0.259	251
CCOc1cc2c(cc1Cl)C[C@H](C[C@@H](C)COc1ccnc3c1[C@H](C)CCC3)[C@]21CC[C@](Nc2cccc(Cl)c2)(C(=O)O)CC1 [Example 816, (1r,2′S,4S)-5′-chloro-4-(3-chloroanilino)-6′-ethoxy-2′-[(2R)-2-methyl-3-{[(5R)-5-methyl-5,6,7,8-tetrahydroquinolin-4-yl]oxy}propyl]-2′,3′-dihydrospiro[cyclohexane-1,1′-indene]-4-carboxylic acid]	0.353	101
CCOc1cc2c(cc1Br)C[C@H](C[C@@H](C)COc1ccnc3c1[C@H](C)CCC3)[C@]21CC[C@](Nc2cccc(Cl)c2)(C(=O)O)CC1 [Example 817, (1r,2′S,4S)-5′-bromo-4-(3-chloroanilino)-6′-ethoxy-2′-[(2R)-2-methyl-3-{[(5R)-5-methyl-5,6,7,8-tetrahydroquinolin-4-yl]oxy}propyl]-2′,3′-dihydrospiro[cyclohexane-1,1′-indene]-4-carboxylic acid]	0.229	165
CCOc1cc2c(cc1F)C[C@H](C[C@@H](C)COc1ccnc3c1[C@H](C)CCC3)[C@]21CC[C@](Nc2cccc(Cl)c2)(C(=O)O)CC1 [Example 818, (1r,2′S,4S)-4-(3-chloroanilino)-6′-ethoxy-5′-fluoro-2′-[(2R)-2-methyl-3-{[(5R)-5-methyl-5,6,7,8-tetrahydroquinolin-4-yl]oxy}propyl]-2′,3′-dihydrospiro[cyclohexane-1,1′-indene]-4-carboxylic acid]	0.0783	106
CC(C)Oc1cc2c(cc1Cl)C[C@H](C[C@@H](C)COc1ccnc3c1[C@H](C)CCC3)[C@]21CC[C@](Nc2cccc(Cl)c2)(C(=O)O)CC1 [Example 819, (1r,2′S,4S)-5′-chloro-4-(3-chloroanilino)-2′-[(2R)-2-methyl-3-{[(5R)-5-methyl-5,6,7,8-tetrahydroquinolin-4-yl]oxy}propyl]-6′-[(propan-2-yl)oxy]-2′,3′-dihydrospiro[cyclohexane-1,1′-indene]-4-carboxylic acid]	0.162	151
COCCOc1cc2c(cc1Cl)C[C@H](C[C@@H](C)COc1ccnc3c1[C@H](C)CCC3)[C@]21CC[C@](Nc2cccc(Cl)c2)(C(=O)O)CC1 [Example 822, (1r,2′S,4S)-5′-chloro-4-(3-chloroanilino)-6′-(2-methoxyethoxy)-2′-[(2R)-2-methyl-3-{[(5R)-5-methyl-5,6,7,8-tetrahydroquinolin-4-yl]oxy}propyl]-2′,3′-dihydrospiro[cyclohexane-1,1′-indene]-4-carboxylic acid]	0.149	64.1
COCCCOc1cc2c(cc1Cl)C[C@H](C[C@@H](C)COc1ccnc3c1[C@H](C)CCC3)[C@]21CC[C@](Nc2cccc(Cl)c2)(C(=O)O)CC1 [Example 823, (1r,2′S,4S)-5′-chloro-4-(3-chloroanilino)-6′-(3-methoxypropoxy)-2′-[(2R)-2-methyl-3-{[(5R)-5-methyl-5,6,7,8-tetrahydroquinolin-4-yl]oxy}propyl]-2′,3′-dihydrospiro[cyclohexane-1,1′-indene]-4-carboxylic acid]	0.108	128
[2H]c1c([2H])c(Cl)c([2H])c(N[C@]2(C(=O)O)CC[C@]3(CC2)c2cc4c(cc2C[C@@H]3C[C@@H](C)COc2ccnc3c2[C@H](C)CCC3)OCO4)c1[2H] [Example 844, (1r,4S,6′S)-4-{[3-chloro(2H4)phenyl]amino}-6′-[(2R)-2-methyl-3-{[(5R)-5-methyl-5,6,7,8-tetrahydroquinolin-4-yl]oxy}propyl]-6′,7′-dihydro-2′H-spiro[cyclohexane-1,5′-indeno[5,6-d][1,3]dioxole]-4-carboxylic acid]	0.0106	29.2

The next lines start with results.

Ki [1] [nM]	Structure (SMILES)	IC50 (NCI-H929 cell lines) [nM]
0.0908	COc1cc2c(cc1C)C[C@H](C[C@@H](C)COc1ccnc3c1[C@H](C)CCC3)[C@]21CC[C@](Nc2cccc(Cl)c2)(C(=O)O)CC1 [Example 813, (1r,2′S,4S)-4-(3-chloroanilino)-6′-methoxy-5′-methyl-2′-[(2R)-2-methyl-3-{[(5R)-5-methyl-5,6,7,8-tetrahydroquinolin-4-yl]oxy}propyl]-2′,3′-dihydrospiro[cyclohexane-1,1′-indene]-4-carboxylic acid]	184
0.408	C[C@@H](COc1ccnc2c1[C@H](C)CCC2)C[C@H]1Cc2cc(Cl)c(OC3CCCC3)cc2[C@]12CC[C@@](Nc1cccc(Cl)c1)(C(=O)O)CC2 [Example 821, (1r,2′S,4S)-5′-chloro-4-(3-chloroanilino)-6′-(cyclopentyloxy)-2′-[(2R)-2-methyl-3-{[(5R)-5-methyl-5,6,7,8-tetrahydroquinolin-4-yl]oxy}propyl]-2′,3′-dihydrospiro[cyclohexane-1,1′-indene]-4-carboxylic acid]	536
0.329	CCOc1cc2c(cc1C)CC(C[C@@H](C)COc1ccnc3c1[C@H](C)CCC3)[C@]21CC[C@](Nc2cccc(Cl)c2)(C(=O)O)CC1 (stereo partly drawn) [Example 824, (1r,4R)-4-(3-chloroanilino)-6′-ethoxy-5′-methyl-2′-[(2R)-2-methyl-3-{[(5R)-5-methyl-5,6,7,8-tetrahydroquinolin-4-yl]oxy}propyl]-2′,3′-dihydrospiro[cyclohexane-1,1′-indene]-4-carboxylic acid]	421
0.438	COc1cc2c(cc1OC)[C@]1(CC[C@@](Nc3cccc(Cl)c3)(C(=O)O)CC1)[C@@H](C[C@@H](C)COc1ccnc3c1[C@H](C)CCC3)C2 [Example 835, (1r,2′S,4S)-4-(3-chloroanilino)-5′,6′-dimethoxy-2′-[(2R)-2-methyl-3-{[(5R)-5-methyl-5,6,7,8-tetrahydroquinolin-4-yl]oxy}propyl]-2′,3′-dihydrospiro[cyclohexane-1,1′-indene]-4-carboxylic acid]	146
0.0472	C[C@@H](COc1ccnc2c1[C@H](C)CCC2)C[C@H]1Cc2cc3c(cc2[C@]12CC[C@@](Nc1cccc(Cl)c1)(C(=O)O)CC2)OCCCCO3 [Example 836, (1r,4S,9′S)-4-(3-chloroanilino)-9′-[(2R)-2-methyl-3-{[(5R)-5-methyl-5,6,7,8-tetrahydroquinolin-4-yl]oxy}propyl]-2′,3′,4′,5′,9′,10′-hexahydrospiro[cyclohexane-1,8′-indeno[5,6-b][1,4]dioxocine]-4-carboxylic acid]	106
0.00733	C[C@@H](COc1ccnc2c1[C@H](C)CCC2)C[C@H]1Cc2cc3c(cc2[C@]12CC[C@@](Nc1cccc(Cl)c1)(C(=O)O)CC2)OCCCO3 [Example 837, (1r,4S,8′S)-4-(3-chloroanilino)-8′-[(2R)-2-methyl-3-{[(5R)-5-methyl-5,6,7,8-tetrahydroquinolin-4-yl]oxy}propyl]-3′,4′,8′,9′-tetrahydro-2′H-spiro[cyclohexane-1,7′-indeno[5,6-b][1,4]dioxepine]-4-carboxylic acid]	31
3.58	C[C@@H](COc1ccnc2c1[C@@H](C)CCC2)C[C@@H]1Cc2cc3c(cc2[C@]12CC[C@@](Nc1cccc(Cl)c1)(C(=O)O)CC2)OCO3 [Example 843, (1r,4R,6′R)-4-(3-chloroanilino)-6′-[(2R)-2-methyl-3-{[(5S)-5-methyl-5,6,7,8-tetrahydroquinolin-4-yl]oxy}propyl]-6′,7′-dihydro-2′H-spiro[cyclohexane-1,5′-indeno[5,6-d][1,3]dioxole]-4-carboxylic acid]	1380
0.105	C[C@@H](COc1ccnc2c1[C@H](C)CCC2)C[C@H]1Cc2cc3c(cc2[C@]12CC[C@@](Nc1cccc(Cl)c1F)(C(=O)O)CC2)OCO3 [Example 846, (1r,4S,6′S)-4-(3-chloro-2-fluoroanilino)-6′-[(2R)-2-methyl-3-{[(5R)-5-methyl-5,6,7,8-tetrahydroquinolin-4-yl]oxy}propyl]-6′,7′-dihydro-2′H-spiro[cyclohexane-1,5′-indeno[5,6-d][1,3]dioxole]-4-carboxylic acid]	42
0.0343	C[C@@H](COc1ccnc2c1[C@H](C)CCC2)C[C@H]1Cc2cc3c(cc2[C@]12CC[C@@](Nc1cccc(Cl)c1)(C(=O)O)CC2)OC(C)(C)O3 [Example 848, (1r,4S,6′S)-4-(3-chloroanilino)-2′,2′-dimethyl-6′-[(2R)-2-methyl-3-{[(5R)-5-methyl-5,6,7,8-tetrahydroquinolin-4-yl]oxy}propyl]-6′,7′-dihydro-2′H-spiro[cyclohexane-1,5′-indeno[5,6-d][1,3]dioxole]-4-carboxylic acid]	48.6
